Experimental findings from US20250282771A1, “TETRAHYDROISOQUINOLINE HETEROBIFUNCTIONAL BCL-XL DEGRADERS” (Treeline Biosciences, Inc., priority 2022, published 2025) are described below.

T1 sequence (Q07817 whole entry): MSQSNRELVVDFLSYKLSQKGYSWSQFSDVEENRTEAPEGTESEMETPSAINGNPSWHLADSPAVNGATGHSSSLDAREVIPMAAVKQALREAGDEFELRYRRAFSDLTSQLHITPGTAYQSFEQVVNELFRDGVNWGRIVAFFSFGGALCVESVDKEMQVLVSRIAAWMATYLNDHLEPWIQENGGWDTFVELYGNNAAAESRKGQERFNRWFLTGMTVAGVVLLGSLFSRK

The first test has as its target T1, N-terminal HiBiT tagged BCL-XL (Homo sapiens, UniProt Q07817).
T1 construct: expressed in transfected cells; host or cells: HT-1080 (ATCC CCL-121) cells stably transduced with lentivirus pLV-UBC-N-HiBiT-BCL-XL-PGK-puro
In words: HiBiT based degradation assay. Type of test: cell-based. The conditions noted are these: HT1080 cells expressing N-terminal HiBiT tagged BCL-XL; 6 h; BCL-XL level normalized with DMSO control. An excerpt:
Human BCL-XL protein coding open reading frame fused with N-terminal HiBiT coding sequence was synthesized from Integrated DNA Technologies (IDT). Next, N-HiBiT-BCL-XL sequence was cloned into pLV-UBC-PGK-Puro, a lentivirus plasmid purchased from Vectorbuilder, to generate pLV-UBC-N-HiBiT-BCL-XL-PGK-puro. Lentiviral particles were generated from Lenti-X™ 293T cells (Clontech) by co-transfection of pLV-UBC-N-HiBiT-BCL-XL-PGK-puro plasmids and lentiviral packaging plasmid mix (Cellecta). HT-1080 [HT1080](ATCC CCL-121) cells were infected with the lentivirus, and HT1080 cells stably integrated with the lentiviral vectors were established by incubation with […] puromycin (Thermofisher).
HT1080 cells expressing N-terminal HiBiT tagged BCL-XL were dispensed into a 384-well plate pre-spotted with compounds at varying concentrations. Three thousand cells were seeded into each well in 40 μL of RPMI 1640 media. […] After incubation, luminescence was read on a PHERAstar FSX Plate Reader (BMG). BCL-XL degradation at each indicated concentration was normalized with the DMSO control. The BCL-XL degradation curves were plotted using a four-parameter logistic model. For compounds displaying hook effects, the curve fitting was performed using the bottom point of the hook curves (i.e., the point of Ymin) as the bottom plateau to calculate EC50.
A general note: The HiBiT peptide binds its large partner to form an active luciferase.
For `Cc1c(O[C@@H](C)CCC2CCN(CC(=O)N3CCN(c4cc5c(cc4F)C(=O)N(C4CCC(=O)NC4=O)C5=O)CC3)CC2)cccc1-c1ccc(N2CCc3cccc(C(=O)Nc4nc5ccccc5s4)c3C2)nc1C(=O)O` (stereo partly drawn) [Compound 128a, 6-(8-(benzo[d]thiazol-2-ylcarbamoyl)-3,4-dihydroisoquinolin-2(1H)-yl)-3-(3-(((2S)-4-(1-(2-(4-(2-(2,6-dioxopiperidin-3-yl)-6-fluoro-1,3-dioxoisoindolin-5-yl)piperazin-1-yl)-2-oxoethyl)piperidin-4-yl)butan-2-yl)oxy)-2-methylphenyl)picolinic acid], the “Ymin (6 h)” value is “C (Ymin ≥ 70%)”.

For the compound `Cc1c(OCCCCCCCCCC(=O)N2CCN(c3cc4c(cc3F)C(=O)N(C3CCC(=O)NC3=O)C4=O)CC2)cccc1-c1ccc(N2CCc3cccc(C(=O)Nc4nc5ccccc5s4)c3C2)nc1C(=O)O` (centres unmarked) [Compound 102], the “Ymin (6 h)” value is listed as “A (Ymin < 50%)”.

Take `Cc1cc(OCCCC2CCN(CC(=O)N3CCN(c4cc5c(cc4F)C(=O)N(C4CCC(=O)NC4=O)C5=O)CC3)CC2)ccc1-c1ccc(N2CCc3cccc(C(=O)Nc4nc5ccccc5s4)c3C2)nc1C(=O)O` (centres unmarked) [Compound 138]: the “Ymin (6 h)” value is recorded as “C (Ymin ≥ 70%)”.

For `Cc1c(Oc2ccc(CCCN3CCN(c4cc5c(cc4F)C(=O)N(C4CCC(=O)NC4=O)C5=O)CC3)cc2)cccc1-c1ccc(N2CCc3cccc(C(=O)Nc4nc5ccccc5s4)c3C2)nc1C(=O)O` (centres unmarked) [Compound 110, 6-[8-(1,3-Benzothiazol-2-ylcarbamoyl)-3,4-dihydro-1H-isoquinolin-2-yl]-3-[3-[4-[3-[4-[2-(2,6-dioxo-3-piperidyl)-6-fluoro-1,3-dioxo-isoindolin-5-yl]piperazin-1-yl]propyl]phenoxy]-2-methyl-phenyl]pyridine-2-carboxylic acid], the “Ymin (6 h)” value was “B (50% ≤ Ymin < 70%)”.

Regarding `Cc1c(OCCCCCCCCCN2CCN(c3cc4c(cc3F)C(=O)N(C3CCC(=O)NC3=O)C4=O)CC2)cccc1-c1ccc(N2CCc3cccc(C(=O)Nc4nc5ccccc5s4)c3C2)nc1C(=O)O` (centres unmarked) [Compound 105], the “Ymin (6 h)” value was “A (Ymin < 50%)”.

`Cc1c(OCCCCCCCCN2CCN(c3cc4c(cc3F)C(=O)N(C3CCC(=O)NC3=O)C4=O)CC2)cccc1-c1ccc(N2CCc3cccc(C(=O)Nc4nc5ccccc5s4)c3C2)nc1C(=O)O` (centres unmarked) [Compound 108]: the “Ymin (6 h)” value was “B (50% ≤ Ymin < 70%)”.

For the compound `Cc1c(OCCCCCCCCCCCN2CCN(c3cc4c(cc3F)C(=O)N(C3CCC(=O)NC3=O)C4=O)CC2)cccc1-c1ccc(N2CCc3cccc(C(=O)Nc4nc5ccccc5s4)c3C2)nc1C(=O)O` (centres unmarked) [Compound 107], the “Ymin (6 h)” value was “B (50% ≤ Ymin < 70%)”.

The test is the same for the next values; noted with them: HT1080 cells expressing N-terminal HiBiT tagged BCL-XL; 24 h; BCL-XL level normalized with DMSO control.
As for `Cc1c(O[C@@H](C)CCC2CCN(CC(=O)N3CCN(c4cc5c(cc4F)C(=O)N(C4CCC(=O)NC4=O)C5=O)CC3)CC2)cccc1-c1ccc(N2CCc3cccc(C(=O)Nc4nc5ccccc5s4)c3C2)nc1C(=O)O` (stereo partly drawn) [Compound 128a, 6-(8-(benzo[d]thiazol-2-ylcarbamoyl)-3,4-dihydroisoquinolin-2(1H)-yl)-3-(3-(((2S)-4-(1-(2-(4-(2-(2,6-dioxopiperidin-3-yl)-6-fluoro-1,3-dioxoisoindolin-5-yl)piperazin-1-yl)-2-oxoethyl)piperidin-4-yl)butan-2-yl)oxy)-2-methylphenyl)picolinic acid], the “Ymin (24 h)” value is given as “B (50% ≤ Ymin < 70%)”.

As for `Cc1c(O[C@H]2CC[C@H](CCCCN3CCN(c4cc5c(cc4F)C(=O)N(C4CCC(=O)NC4=O)C5=O)CC3)CC2)cccc1-c1ccc(N2CCc3cccc(C(=O)Nc4nc5ccccc5s4)c3C2)nc1C(=O)O` (some centres unmarked) [Compound 129a, 6-(8-(benzo[d]thiazol-2-ylcarbamoyl)-3,4-dihydroisoquinolin-2(1H)-yl)-3-(3-(((1s,4r)-4-(4-(4-(2-(2,6-dioxopiperidin-3-yl)-6-fluoro-1,3-dioxoisoindolin-5-yl)piperazin-1-yl)butyl)cyclohexyl)oxy)-2-methylphenyl)picolinic acid], the “Ymin (24 h)” value is “B (50% ≤ Ymin < 70%)”.

In the case of `Cc1c(O[C@H]2CC[C@H](CCCC(=O)N3CCN(c4cc5c(cc4F)C(=O)N(C4CCC(=O)NC4=O)C5=O)CC3)CC2)cccc1-c1ccc(N2CCc3cccc(C(=O)Nc4nc5ccccc5s4)c3C2)nc1C(=O)O` (some centres unmarked) [Compound 139a, 6-(8-(benzo[d]thiazol-2-ylcarbamoyl)-3,4-dihydroisoquinolin-2(1H)-yl)-3-(3-(((1s,4r)-4-(4-(4-(2-(2,6-dioxopiperidin-3-yl)-6-fluoro-1,3-dioxoisoindolin-5-yl)piperazin-1-yl)-4-oxobutyl)cyclohexyl)oxy)-2-methylphenyl)picolinic acid], the “Ymin (24 h)” value is “B (50% ≤ Ymin < 70%)”.

As to `Cc1c(OCC[C@H](C)C2CCN(CC(=O)N3CCN(c4cc5c(cc4F)C(=O)N(C4CCC(=O)NC4=O)C5=O)CC3)CC2)cccc1-c1ccc(N2CCc3cccc(C(=O)Nc4nc5ccccc5s4)c3C2)nc1C(=O)O` (stereo partly drawn) [Compound 130a, 6-[8-(1,3-benzothiazol-2-ylcarbamoyl)-3,4-dihydro-1H-isoquinolin-2-yl-3-[3-[(3S)-3-1-[2-[4-[2-(2,6-dioxo-3-piperidyl)-6-fluoro-1,3-dioxo-isoindolin-5-yl]piperazin-1-yl]-2-oxo-ethyl]-4-piperidyl]butoxy]-2-methyl-phenyl]pyridine-2-carboxylic acid], the “Ymin (24 h)” value was “B (50% ≤ Ymin < 70%)”.

`Cc1c(OCCC[C@@H]2CCN(CC(=O)N3CCN(c4cc5c(cc4F)C(=O)N(C4CCC(=O)NC4=O)C5=O)CC3)C2)cccc1-c1ccc(N2CCc3cccc(C(=O)Nc4nc5ccccc5s4)c3C2)nc1C(=O)O` (stereo partly drawn) [Compound 122b, 6-[8-(1,3-benzothiazol-2-ylcarbamoyl)-3,4-dihydro-1H-isoquinolin-2-yl]-3-[3-[3-[(3R)-1-[2-[4-[2-(2,6-dioxo-3-piperidyl)-6-fluoro-1,3-dioxo-isoindolin-5-yl]piperazin-1-yl]-2-oxo-ethyl]pyrrolidin-3-yl]propoxy]-2-methyl-phenyl]pyridine-2-carboxylic acid]: the “Ymin (24 h)” value is “B (50% ≤ Ymin < 70%)”.

Turning to `Cc1c(O[C@H](C)CCC2CCN(CC(=O)N3CCN(c4cc5c(cc4F)C(=O)N(C4CCC(=O)NC4=O)C5=O)CC3)CC2)cccc1-c1ccc(N2CCc3cccc(C(=O)Nc4nc5ccccc5s4)c3C2)nc1C(=O)O` (stereo partly drawn) [Compound 128b, 6-[8-(1,3-benzothiazol-2-ylcarbamoyl)-3,4-dihydro-1H-isoquinolin-2-yl]-3-[3-[(1R)-3-[1-[2-[4-[2-(2,6-dioxo-3-piperidyl)-6-fluoro-1,3-dioxo-isoindolin-5-yl]piperazin-1-yl]-2-oxo-ethyl]-4-piperidyl]-1-methyl-propoxy]-2-methyl-phenyl]pyridine-2-carboxylic acid], the “Ymin (24 h)” value is listed as “B (50% ≤ Ymin < 70%)”.

As for `Cc1cc(OCCCC2CCN(CC(=O)N3CCN(c4cc5c(cc4F)C(=O)N(C4CCC(=O)NC4=O)C5=O)CC3)CC2)ccc1-c1ccc(N2CCc3cccc(C(=O)Nc4nc5ccccc5s4)c3C2)nc1C(=O)O` (centres unmarked) [Compound 138], the “Ymin (24 h)” value is reported as “B (50% ≤ Ymin < 70%)”.

Take `Cc1c(Oc2ccc(CCCN3CCN(c4cc5c(cc4F)C(=O)N(C4CCC(=O)NC4=O)C5=O)CC3)cc2)cccc1-c1ccc(N2CCc3cccc(C(=O)Nc4nc5ccccc5s4)c3C2)nc1C(=O)O` (centres unmarked) [Compound 110, 6-[8-(1,3-Benzothiazol-2-ylcarbamoyl)-3,4-dihydro-1H-isoquinolin-2-yl]-3-[3-[4-[3-[4-[2-(2,6-dioxo-3-piperidyl)-6-fluoro-1,3-dioxo-isoindolin-5-yl]piperazin-1-yl]propyl]phenoxy]-2-methyl-phenyl]pyridine-2-carboxylic acid]: the “Ymin (24 h)” value was “B (50% ≤ Ymin < 70%)”.

As to `Cc1c(OCC(F)(F)CC2CCN(CC(=O)N3CCN(c4cc5c(cc4F)C(=O)N(C4CCC(=O)NC4=O)C5=O)CC3)CC2)cccc1-c1ccc(N2CCc3cccc(C(=O)Nc4nc5ccccc5s4)c3C2)nc1C(=O)O` (centres unmarked) [Compound 127, 6-(8-(benzo[d]thiazol-2-ylcarbamoyl)-3,4-dihydroisoquinolin-2(1H)-yl)-3-(3-(3-(1-(2-(4-(2-(2,6-dioxopiperidin-3-yl)-6-fluoro-1,3-dioxoisoindolin-5-yl)piperazin-1-yl)-2-oxoethyl)piperidin-4-yl)-2,2-difluoropropoxy)-2-methylphenyl)picolinic acid], the “Ymin (24 h)” value is listed as “B (50% ≤ Ymin < 70%)”.

Turning to `Cc1c(OCCC2CCN(CC3CCN(c4cc5c(cc4F)C(=O)N(C4CCC(=O)NC4=O)C5=O)CC3)CC2)cccc1-c1ccc(N2CCc3cccc(C(=O)Nc4nc5ccccc5s4)c3C2)nc1C(=O)O` (centres unmarked) [Compound 145, 6-[8-(1,3-benzothiazol-2-ylcarbamoyl)-3,4-dihydro-1H-isoquinolin-2-yl]-3-[3-[2-[1-[[1-[2-(2,6-dioxo-3-piperidyl)-6-fluoro-1,3-dioxo-isoindolin-5-yl]-4-piperidyl]methyl]-4-piperidyl]ethoxy]-2-methyl-phenyl]pyridine-2-carboxylic acid], the “Ymin (24 h)” value was “A (Ymin < 50%)”.

Regarding `Cc1cc(OCCCC2CCN(CCN3CCN(c4cc5c(cc4F)C(=O)N(C4CCC(=O)NC4=O)C5=O)CC3)CC2)ccc1-c1ccc(N2CCc3cccc(C(=O)Nc4nc5ccccc5s4)c3C2)nc1C(=O)O` (centres unmarked) [Compound 121], the “Ymin (24 h)” value is “A (Ymin < 50%)”.

Turning to `Cc1c(OCCC2CCN(CCN3CCN(c4cc5c(cc4F)C(=O)N(C4CCC(=O)NC4=O)C5=O)CC3)CC2)cccc1-c1ccc(N2CCc3cccc(C(=O)Nc4nc5ccccc5s4)c3C2)nc1C(=O)O` (centres unmarked) [Compound 116, 6-[8-(1,3-benzothiazol-2-ylcarbamoyl)-3,4-dihydro-1H-isoquinolin-2-yl]-3-[3-[2-[1-[2-[4-[2-(2,6-dioxo-3-piperidyl)-6-fluoro-1,3-dioxo-isoindolin-5-yl]piperazin-1-yl]ethyl]-4-piperidyl]ethoxy]-2-methyl-phenyl]pyridine-2-carboxylic acid], the “Ymin (24 h)” value was “A (Ymin < 50%)”.

For `Cc1c(OCCCC[C@@H]2CCCN(CC(=O)N3CCN(c4cc5c(cc4F)C(=O)N(C4CCC(=O)NC4=O)C5=O)CC3)C2)cccc1-c1ccc(N2CCc3cccc(C(=O)Nc4nc5ccccc5s4)c3C2)nc1C(=O)O` (stereo partly drawn) [Compound 135a, 6-[8-(1,3-benzothiazol-2-ylcarbamoyl)-3,4-dihydro-1H-isoquinolin-2-yl]-3-[3-[4-[(3R)-1-[2-[4-[2-(2,6-dioxo-3-piperidyl)-6-fluoro-1,3-dioxo-isoindolin-5-yl]piperazin-1-yl]-2-oxo-ethyl]-3-piperidyl]butoxy]-2-methyl-phenyl]pyridine-2-carboxylic acid], the “Ymin (24 h)” value is recorded as “B (50% ≤ Ymin < 70%)”.
